Measured values: patent US8551951B2, “Pharmaceutical preparations and methods for inhibiting tumors” (Aenorasis SA Pharmaceuticals and Medical Devices, priority 2000, dated 2013)
Peptide text beside a SMILES is read from it.

Legend:
PC-3 cells [1] = assay: Apoptosis assay by ELISA plus; type: cell-based, human; conditions: for apoptotic cell death effect: 22.5 μM to 90 μM, 72 hours
Method: The three polypeptides (SEQ ID NO: 4, SEQ ID NO: 5 and SEQ ID NO 6) and native PSP94 used here as a positive control were tested in ELISA plus assay to measure cell death through apoptosis. Briefly, the ELISA plus assay is a sandwich enzyme immunoassay able to measure mono- and oligonucleosomes present in the cytoplasmic fraction of cell lysate using two antibodies, one directed against DNA and the other directed against histones. The apoptotic cell death is characterized by activation of endogenous endonucleases (e.g., calcium- and magnesium-dependant), which cleave double-stranded DNA at the most accessible internucleosomal linker region, generating mono- and oligonucleosomes. The enrichment of mono- and oligonucleosomes in the cytoplasm of the apoptotic cells is due to the fact that DNA degradation occurs several hours before plasma membrane breakdown.
Four thousand cells were seeded in Costar 96 well cell culture flat bottom plates in RPMI supplemented media containing 50 μg/ml of bovine serum albumin (BSA) and 0.1 μM FeSO4. The PC-3 cells were treated with various concentrations (22.5 μM to 90 μM) of polypeptides for 72 hours. Apoptosis assay was done as per manufacturer's instructions using the ApopTag kit (Boeringher Mannheim).

Dunning Mat Ly Lu tumors = assay: Studies MLL-5 and MLL-6, Mat Ly Lu tumor implanted in Copenhagen rats; type: in vivo
Method: Anti-tumor efficacy evaluation of PCK3145 against Mat Ly Lu (MLL) tumor implanted in Copenhagen rats was performed. (Protocol based on S. Garde et al.; The Prostate, 22: 225-233, 1993). Mat LyLu tumor cells were harvested in mid-log phase from the culture flasks by trypsinization, were centrifuged at 1200 rotation per minute (rpm) and washed three timed with Hanks balanced salt solution (HBSS). Following washing, cells were counted and adjusted to a concentration of 5×10^6 cells/ml in HBSS. A 0.1 ml volume of tumor cell inoculum containing 5×10^5 cells was administered subcutaneously into the flank region of each rat. Treatment started at day 3 post-tumor implantation (p.t.i) by local subcutaneous injection (i.e., in the shaved back area just below tumor implantation site) of various PCK3145 concentrations. This treatment was continued daily for 16 days. Experiments were terminated 24 hours after the last treatment. Tumor measurements were taken at days 7, 9, 11, 14, 16 and 18. Tumor volumes are calculated according to formula (a×b^2×0.5), where a—is the length of the long diameter, b—width of the perpendicular small diameter. At day 19 tumors of individual rats were excised and weighed.
Study No: MLL-5 illustrates the efficacy of PCK3145 (SEQ ID NO: 5) compared with polypeptide 7-21 (SEQ ID NO: 4) and polypeptide 76-94 (SEQ ID NO: 6) in tumor growth retardation in Copenhagen rats, which have received Mat Ly Lu implants. Mice were separated in different groups, each receiving various amount of PCK3145 (SEQ ID NO: 5) or control reagents. PCK3145 was injected through the subcutaneous route. The different groups used in these experiments are illustrated in table 8 below. Each group contained 8 mice.
Study No: MLL-6 illustrates the efficacy of PCK3145 (SEQ ID NO: 5) in tumor growth retardation in Copenhagen rats, which have received Mat Ly Lu implants. Mice were separated in different group each receiving various amounts of PCK3145 (SEQ ID NO: 5) or control reagents. PCK3145 was injected through the subcutaneous route. The different groups used in these experiments are illustrated in table 9 below. Each group contained 8 mice. Doxorubicin was administered as single bolus via intra-venous injection on day 3 p.t.i.

PC-3 cells [2] = assay: [^3H]-Thymidine uptake assay; type: cell-based, human; conditions: GMP grade
Method: The in vitro growth inhibition effect of rHuPSP94 was assessed using [^3H]-Thymidine uptake assay. [^3H]-Thymidine uptake assay involves [^3H]-Thymidine incorporation into cellular DNA of actively proliferating cells. It measures the proliferative index of the cells versus the MTS assay, which quantifies the number of lived cells following treatment. Cells were seeded in Costar 96 well cell culture flat bottom plates in RPMI supplemented media containing 50 μg/ml of bovine serum albumin (BSA) and 0.1 μM FeSO4. PC-3 cells were exposed to various concentrations of rHuPSP94 for 72 hours and during the final 16 hours of incubation cells were pulsed with 1 μCi of [^3H]-Thymidine. The radioactivity in each well of the plate is counted by a beta-counter and is expressed as total counts per minutes (cpm). Results of in vitro effect of rHuPSP94 on PC-3 cells using the ^3[H]-Thymidine uptake assay are summarized in Table 3 and are expressed as percentage of radioactivity measured for treated-cells relative to the radioactivity measured for non-treated cells (for which [^3H]-thymidine uptake value was set at 100%).
[^3H]-Thymidine uptake assay involves [^3H]-Thymidine incorporation into cellular DNA of actively proliferating cells. [^3H]-Thymidine uptake assay measures the proliferative index of the cells versus the MTS assay, which quantifies the number of lived cells following treatment. The anti-proliferative effects of PCK3145 and two other synthetic polypeptides derived from the amino and carboxy terminus ends of PSP94 (SEQ ID NO: 4 and NO: 6, respectively) as well as the decapeptide (SEQ ID NO: 3) previously shown to mimic the biological action of native PSP94 were assessed in [H3]-Thymidine uptake assay on PC-3 cells. Two separate experiments were conducted with GMP-grade PCK3145.

| Molecule | apoptotic cell death effect (PC-3 cells [1]) | anti-tumor effect (tumor volume), study MLL-5 (Dunning Mat Ly Lu tumors; s.c., days 13, 16, 18, dose not given) | reduction in [^3H]-Thymidine uptake (PC-3 cells [2]; 200 μg/ml, first experiment) [%] | inhibition of [^3H]-Thymidine uptake (PC-3 cells [2]; 400 μg/ml, second experiment) [%] | apoptotic cell death, potency relative to the other polypeptides (PC-3 cells [1]; 90 μM) | anti-tumor effect (tumor volume), study MLL-5 (Dunning Mat Ly Lu tumors; 1 μg/kg/day s.c.) | anti-tumor effect (tumor volume), study MLL-5 (Dunning Mat Ly Lu tumors; 10 μg/kg/day s.c., days 11, 13, 16, 18) | tumor volume reduction over control, study MLL-6 (Dunning Mat Ly Lu tumors; 100 μg/kg/day s.c., days 14, 16 and 18) [%] | difference in tumor weight between control and treated group, study MLL-6 (Dunning Mat Ly Lu tumors; 100 μg/kg/day, day 18 p.t.i) [gram] | tumor weight, study MLL-6 (Dunning Mat Ly Lu tumors; 100 μg/kg/day, day 18 p.t.i, control 56.6 g) [g] | reduction in tumor mass, study MLL-6 (Dunning Mat Ly Lu tumors; 100 μg/kg/day, day 18 p.t.i, p=0.0003) [%] | anti-tumor effect, study MLL-6 (Dunning Mat Ly Lu tumors; 10 and 100 μg/kg/day s.c.) |
| --- | --- | --- | --- | --- | --- | --- | --- | --- | --- | --- | --- | --- |
| polypeptide 7-21: PSP94 derived synthetic polypeptide from the amino terminus end, SEQ ID NO: 4 (NEGVPGDSTRKCMDL; Polypeptide 7-21) | dose dependent increase in the apoptotic cell death effect | comparable anti-tumor effect |  |  |  |  |  |  |  |  |  |  |
| C[C@@H](O)[C@H](NC(=O)[C@H](CCC(=O)O)NC(=O)[C@H](Cc1ccc(O)cc1)NC(=O)[C@H](CS)NC(=O)[C@@H](NC(=O)[C@H](CS)NC(=O)[C@@H](NC(=O)[C@H](CCC(=O)O)NC(=O)[C@H](CS)NC(=O)[C@H](CC(N)=O)NC(=O)[C@H](CC(=O)O)NC(=O)[C@@H](NC(=O)[C@H](CCC(N)=O)NC(=O)[C@H](Cc1c[nH]c2ccccc12)NC(=O)[C@@H](N)CCC(=O)O)[C@@H](C)O)[C@@H](C)O)[C@@H](C)O)C(=O)O [PCK3145, EWQTDNCETCTCYET] (H-EWQTDNCETCTCYET-OH; N-terminus and C-terminus assumed) | dose dependent increase in the apoptotic cell death effect |  | ~40 | 25 | more potent than the other polypeptides | No significant effect | significant anti-tumor effect | 31 | 20 | 37.2 | 34 | significant dose-dependent anti-tumor effect |
